Measurements published in paper PMC3158247 (Journal of medicinal chemistry, 2011).

Tests used:
[1] = tested on: CL57BL/6 mice
[2] = tested on: HBV-transgenic mice (strain 1.3.32); assay type: in vivo; details: oral gavage once daily for 14 days
[3] = tested on: HepG2.2.15 cell line; details: MTT assay

Row | SMILES | tolerability ([1]; CL57BL/6 (normal) mice) | platelets, neutrophils, lymphocytes (trend) ([1]; single intravenous bolus 25 mg/kg, 24 hours) | serum chemistry ([1]; single intravenous bolus, […] 1a and 7.9 mg/kg 3c respectively, 24 hours) | alanine transaminase (ALT) and bilirubin [2] | other serum chemistry changes [2] | total sodium [2] | deaths as a result of compound exposure ([2]; 25 and 7.9 mg/kg) | weight loss, morphological or behavioral changes ([2]; 25 and 7.9 mg/kg) | No cytotoxicity observed up to the highest concentration tested [3]
1 | Fc1cccc(Cl)c1C1CC(c2ccc(Cl)cc2)Nc2ncnn21 (racemic) [Compound 1a, 7-(2-Chloro-6-fluorophenyl)-5-(4-chlorophenyl)-4,5,6,7-tetrahydro-[1,2,4]triazolo[1,5-a]pyrimidine] | well-tolerated | trend towards reduction of platelets and neutrophils, and also an increase in lymphocytes | unaffected | elevated levels of alanine transaminase (ALT) and bilirubin in a minority of treated animals | did not result in any other obvious and significant dose-dependent serum chemistry changes | slight rise in total sodium | No animals were observed to have died as a result of compound exposure | No weight loss, morphological or behavioral changes were noted | > 50 µM
2 | Fc1cccc(Cl)c1C1CC(c2ccc(Cl)cc2)Nc2ncnn21 (single isomer, unassigned) [enantiomer 1 of 1a] |  |  |  |  |  |  |  |  | > 50 µM
3 | Fc1cccc(F)c1C1C=C(c2ccc(Cl)cc2)Nc2ncnn21 (centres unmarked) [Compound 3c, 5-(4-Chlorophenyl)-7-(2,6-difluorophenyl)-4,7-dihydro-[1,2,4]triazolo[1,5-a]pyrimidine] |  |  |  |  |  |  | No animals were observed to have died as a result of compound exposure |  | 
